The values that follow come from patent publication EP0259782A1, “Naphthalene and indane derivatives, medicaments containing these compounds and processes for their preparation” (Dr. Karl Thomae GmbH, priority 1986, dated 1988).

Series [1] deals with Herzfrequenz an Ratten. In words: Effect on heart rate in anaesthetised rats. In kind it is in vivo. Conditions: rats anaesthetised with pentobarbital; dose 5,0 mg/kg injected into the Vena jugularis; 5 minutes after application; control heart rate 350-400 S/min; 2 rats per dose. Here is the method: Wirkung auf die Herzfrequenz an Ratten: Die Wirkung der zu untersuchenden Substanzen auf die Herzfrequenz wurde pro Dosis an 2 Ratten mit einem durchschnittlichen Gewicht von 250-300 g untersucht. Hierzu wurden die Ratten mit Pentobarbital (50 mg/kg i.p. und 10 mg/kg s.c.) narkotisiert. Die zu untersuchenden Substanzen […]ösung in die Vena jugularis injiziert (0,1 ml/100 g). Der Blutdruck wurde über in eine A. carotis eingebundene Kanüle gemessen und die Herzfrequenz wurde aus einem mit Nadelelektroden abgeleiteten EKG (II. oder III. Ableitung) registriert. Die Herzfrequenz der […] 350 und 400 Schlägen/Minuten (S/min).

The subject of series [2] is Mäusen. Conditions: in vivo, iv, 10 mg/kg. From the text: Die erfindungsgemäß hergestellten Verbindungen weisen in therapeutischen Dosen keinerlei toxische Nebenwirkungen auf.

As to `COc1ccc(CCN(C)CCCC2Cc3cc(OC)c(OC)cc3C2O)cc1OC` (centres unmarked) [Substanz C, 5,6-Dimethoxy-2-[3-((2-(3,4-dimethoxyphenyl)-ethyl)-methylamino)-propyl]-1-hydroxy-indan], the “Herzfrequenzsenkung, gemessen 5 Minuten nach Substanzapplikation” value in series [1] was found to be 152 S/min. In addition, the “toxische Nebenwirkungen” value in series [2] is listed as “außer einer geringen Sedation keine toxischen Nebenwirkungen”.

For `COc1ccc(CCN(C)CCCC2CCc3cc(OC)c(OC)cc3C2)cc1OC.Cl` (centres unmarked) [Substanz B, 6,7-Dimethoxy-2-[3-((2-(3,4-dimethoxyphenyl)-ethyl)-methylamino)-propyl]-1,2,3,4-tetrahydro-naphthalin-hydrochlorid], the “Herzfrequenzsenkung, gemessen 5 Minuten nach Substanzapplikation” value in series [1] stood at 150 S/min.

Take `COc1ccc(CCN(C)CCCC2CCc3cc(OC)c(OC)cc3C2=O)cc1OC` (centres unmarked) [Substanz A, 6,7-Dimethoxy-2-[3-((2-(3,4-dimethoxyphenyl)-ethyl)-methylamino)-propyl]-1-oxo-1,2,3,4-tetrahydro-naphthalin]: the “Herzfrequenzsenkung, gemessen 5 Minuten nach Substanzapplikation” value in series [1] was 157 S/min. Also, in series [2], the “toxische Nebenwirkungen” value is “außer einer geringen Sedation keine toxischen Nebenwirkungen”.
